Source: publication PMC4306947, “Synthesis and Antiproliferative Activity of Thiazolyl-bis-pyrrolo[2,3-b]pyridines and Indolyl-thiazolyl-pyrrolo[2,3-c]pyridines, Nortopsentin Analogues” (Marine Drugs, 2015)

melting point [°C] | Compound
346 to 347 | c1cnc2[nH]cc(-c3csc(-c4c[nH]c5ncccc45)n3)c2c1 [Compound 1a, 3,3′-(1,3-Thiazole-2,4-diyl)bis(1H-pyrrolo[2,3-b]pyridine)]
390 to 391 | Brc1cnc2[nH]cc(-c3csc(-c4c[nH]c5ncccc45)n3)c2c1 [Compound 1b, 5-Bromo-3-[2-(1H-pyrrolo[2,3-b]pyridin-3-yl)-1,3-thiazol-4-yl)-1H-pyrrolo[2,3-b]pyridine]
373 to 374 | Fc1cnc2[nH]cc(-c3csc(-c4c[nH]c5ncccc45)n3)c2c1 [Compound 1c, 5-Fluoro-3-[2-(1H-pyrrolo[2,3-b]pyridin-3-yl)-1,3-thiazol-4-yl]-1H-pyrrolo[2,3-b]pyridine]
278 to 279 | Cn1cc(-c2nc(-c3c[nH]c4ncccc34)cs2)c2cccnc21 [Compound 1d, 1-Methyl-3-[4-(1H-pyrrolo[2,3-b]pyridin-3-yl)-1,3-thiazol-2-yl]-1H-pyrrolo[2,3-b]pyridine]
311 | Cn1cc(-c2nc(-c3c[nH]c4ncc(Br)cc34)cs2)c2cccnc21 [Compound 1e, 3-[4-(5-Bromo-1H-pyrrolo[2,3-b]pyridin-3-yl)-1,3-thiazol-2-yl]-1-methyl-1H-pyrrolo[2,3-b]pyridine]
316 | Cn1cc(-c2nc(-c3c[nH]c4ncc(F)cc34)cs2)c2cccnc21 [Compound 1f, 3-[4-(5-Fluoro-1H-pyrrolo[2,3-b]pyridin-3-yl)-1,3-thiazol-2-yl]-1-methyl-1H-pyrrolo[2,3-b]pyridine]
310 to 311 | Cn1cc(-c2csc(-c3cn(C)c4ncccc34)n2)c2cccnc21 [Compound 1g, 3,3′-(1,3-Thiazole-2,4-diyl)bis(1-methyl-1H-pyrrolo[2,3-b]pyridine)]
308 | Cn1cc(-c2csc(-c3cn(C)c4ncccc34)n2)c2cc(Br)cnc21 [Compound 1h, 5-Bromo-1-methyl-3-[2-(1-methyl-1H-pyrrolo[2,3-b]pyridin-3-yl)-1,3-thiazol-4-yl]-1H pyrrolo[2,3-b]pyridine]
301 to 302 | Cn1cc(-c2csc(-c3cn(C)c4ncccc34)n2)c2cc(F)cnc21 [Compound 1i, 5-Fluoro-1-methyl-3-[2-(1-methyl-1H-pyrrolo[2,3-b]pyridin-3-yl)-1,3-thiazol-4-yl]-1H-pyrrolo[2,3-b]pyridine]
303 to 304 | Cn1cc(C2(c3c[nH]c4ncccc34)CSC=N2)c2cccnc21 (stereo not shown) [Compound 1j, 1-Methyl-3-[4-(1H-pyrrolo[2,3-b]pyridin-3-yl)-1,3-thiazol-4-yl]-1H-pyrrolo[2,3-b]pyridine]
295 to 296 | Cn1cc(-c2csc(-c3c[nH]c4ncccc34)n2)c2cc(F)cnc21 [Compound 1l, 5-Fluoro-1-methyl-3-[2-(1H-pyrrolo[2,3-b]pyridin-3-yl)-1,3-thiazol-4-yl]-1H-pyrrolo[2,3-b]pyridine]
326 to 327 | Cn1cc(-c2nc(-c3c[nH]c4c(Cl)nccc34)cs2)c2ccccc21 [Compound 2a, 7-Chloro-3-[2-(1-methyl-1H-indol-3-yl)-1,3-thiazol-4-yl]-1H-pyrrolo[2,3-c]pyridine]
216 to 217 | COc1ccc2c(c1)c(-c1nc(-c3c[nH]c4c(Cl)nccc34)cs1)cn2C [Compound 2b, 7-Chloro-3-[2-(5-methoxy-1-methyl-1H-indol-3-yl)-1,3-thiazol-4-yl]-1H-pyrrolo[2,3-c]pyridine]
374 to 375 | Cn1cc(-c2nc(-c3c[nH]c4c(Cl)nccc34)cs2)c2cc(Br)ccc21 [Compound 2c, 3-[2-(5-Bromo-1-methyl-1H-indol-3-yl)-1,3-thiazol-4-yl]-7-chloro-1H-pyrrolo[2,3-c]pyridine]
337 to 338 | Cn1cc(-c2nc(-c3c[nH]c4c(Cl)nccc34)cs2)c2cc(F)ccc21 [Compound 2d, 7-Chloro-3-[2-(5-fluoro-1-methyl-1H-indol-3-yl)-1,3-thiazol-4-yl]-1H-pyrrolo[2,3-c]pyridine]
265 to 266 | Cn1cc(-c2nc(-c3cn(C)c4c(Cl)nccc34)cs2)c2ccccc21 [Compound 2e, 7-Chloro-1-methyl-3-[2-(1-methyl-1H-indol-3-yl)-1,3-thiazol-4-yl]-1H-pyrrolo[2,3-c]pyridine]

melting point [°C] | Compound
231 to 232 | COc1ccc2c(c1)c(-c1nc(-c3cn(C)c4c(Cl)nccc34)cs1)cn2C [Compound 2f, 7-Chloro-3-[2-(5-methoxy-1-methyl-1H-indol-3-yl)-1,3-thiazol-4-yl]-1-methyl-1H-pyrrolo[2,3-c]pyridine]
249 to 250 | Cn1cc(-c2nc(-c3cn(C)c4c(Cl)nccc34)cs2)c2cc(Br)ccc21 [Compound 2g, 3-[2-(5-Bromo-1-methyl-1H-indol-3-yl)-1,3-thiazol-4-yl]-7-chloro-1-methyl-1H-pyrrolo[2,3-c]pyridine]
284 to 285 | Cn1cc(-c2nc(-c3cn(C)c4c(Cl)nccc34)cs2)c2cc(F)ccc21 [Compound 2h, 7-Chloro-3-[2-(5-fluoro-1-methyl-1H-indol-3-yl)-1,3-thiazol-4-yl]-1-methyl-1H-pyrrolo[2,3-c]pyridine]
284 to 285 | Cn1cc(-c2csc(-c3c[nH]c4ccc(F)cc34)n2)c2ccnc(Cl)c21 [Compound 2i, 7-Chloro-3-[2-(5-fluoro-1H-indol-3-yl)-1,3-thiazol-4-yl]-1-methyl-1H-pyrrolo[2,3-c]pyridine]
281 to 282 | Fc1ccc2[nH]cc(-c3nc(-c4c[nH]c5c(Cl)nccc45)cs3)c2c1 [Compound 2j, 7-Chloro-3-[2-(5-fluoro-1H-indol-3-yl)-1,3-thiazol-4-yl]-1H-pyrrolo[2,3-c]pyridine]
225 to 226 | CC(C)(C)OC(=O)n1cc(-c2nc(-c3c[nH]c4c(Cl)nccc34)cs2)c2ccccc21 [Compound 3a, Tert-Butyl 3-[4-(7-Chloro-1H-pyrrolo[2,3-c]pyridin-3-yl)-1,3-thiazol-2-yl]-1H-indole-1-carboxylate]
312 to 313 | COc1ccc2c(c1)c(-c1nc(-c3c[nH]c4c(Cl)nccc34)cs1)cn2C(=O)OC(C)(C)C [Compound 3b, Tert-Butyl 3-[4-(7-chloro-1H-pyrrolo[2,3-c]pyridin-3-yl)-1,3-thiazol-2-yl]-5-methoxy-1H-indole-1-carboxylate]
241 to 242 | CC(C)(C)OC(=O)n1cc(-c2nc(-c3c[nH]c4c(Cl)nccc34)cs2)c2cc(Br)ccc21 [Compound 3c, Tert-Butyl 5-bromo-3-[4-(7-chloro-1H-pyrrolo[2,3-c]pyridin-3-yl)-1,3-thiazol-2-yl]-1H-indole-1-carboxylate]
279 to 280 | Cn1cc(-c2csc(-c3cn(C(=O)OC(C)(C)C)c4ccccc34)n2)c2ccnc(Cl)c21 [Compound 3d, Tert-Butyl 3-[4-(7-chloro-1-methyl-1H-pyrrolo[2,3-c]pyridin-3-yl)-1,3-thiazol-2-yl]-1H-indole-1-carboxylate]
257 | Cn1cc(-c2csc(-c3cn(C(=O)OC(C)(C)C)c4ccc(Br)cc34)n2)c2ccnc(Cl)c21 [Compound 3f, Tert-Butyl 5-bromo-3-[4-(7-chloro-1-methyl-1H-pyrrolo[2,3-c]pyridin-3-yl)-1,3-thiazol-2-yl]-1H-indole-1-carboxylate]
271 to 272 | Clc1nccc2c(-c3csc(-c4c[nH]c5ccccc45)n3)c[nH]c12 [Compound 4a, 7-Chloro-3-[2-(1H-indol-3-yl)-1,3-thiazol-4-yl]-1H-pyrrolo[2,3-c]pyridine]
223 to 224 | COc1ccc2[nH]cc(-c3nc(-c4c[nH]c5c(Cl)nccc45)cs3)c2c1 [Compound 4b, 7-Chloro-3-[2-(5-methoxy-1H-indol-3-yl)-1,3-thiazol-4-yl]-1H-pyrrolo[2,3-c]pyridine]
210 to 211 | Cn1cc(-c2csc(-c3c[nH]c4ccccc34)n2)c2ccnc(Cl)c21 [Compound 4d, 7-Chloro-3-[2-(1H-indol-3-yl)-1,3-thiazol-4-yl]-1-methyl-1H-pyrrolo[2,3-c]pyridine]
184 to 185 | COc1ccc2[nH]cc(-c3nc(-c4cn(C)c5c(Cl)nccc45)cs3)c2c1 [Compound 4e, 7-Chloro-3-[2-(5-methoxy-1H-indol-3-yl)-1,3-thiazol-4-yl]-1-methyl-1H-pyrrolo[2,3-c]pyridine]
273 to 274 | Cn1cc(-c2csc(-c3c[nH]c4ccc(Br)cc34)n2)c2ccnc(Cl)c21 [Compound 4f, 3-[2-(5-Bromo-1H-indol-3-yl)-1,3-thiazol-4-yl]-7-chloro-1-methyl-1H-pyrrolo[2,3-c]pyridine]
